≈ marks a conversion by molar mass, not a printed value.
Experiments:
Assay type in all cases: functional
[1] = system: Mycolicibacterium smegmatis; experiment: Antimicrobial activity against Mycobacterium smegmatis
[2] = system: Candida albicans; experiment: Antimicrobial activity against Candida albicans
[3] = system: Staphylococcus aureus; experiment: Antimicrobial activity against Staphylococcus aureus

| MIC [1] [µg/mL] | MIC [2] [µg/mL] | MIC [3] [µg/mL] | Compound |
| --- | --- | --- | --- |
| 100 (≈ 157 µM) | 500 (≈ 783 µM) | – | COc1cc2c(cc1OC)[C@H](Cc1ccc(Oc3cc(C[C@H]4c5cc(OC)c(OC)cc5CCN4C)ccc3OC)cc1)N(C)CC2 |
| 100 (≈ 150 µM) | – | – | COc1ccc2cc1Oc1ccc(cc1)C[C@H]1c3c(c(O)c(OC)c(OC)c3Oc3c4c(cc(OC)c3OC)[C@H](C2)N(C)CC4)CCN1C [THALIMIRABINE] |
| 100 (≈ 150 µM) | – | 1000 (≈ 1500 µM) | COc1ccc(C[C@H]2c3cc(OC)c(OC)c(O)c3CCN2C)cc1Oc1ccc(C[C@H]2c3cc4c(c(OC)c3CCN2C)OCO4)cc1 [THALISTINE] |

From ChEMBL document CHEMBL1151346, “Alkaloids of Thalictrum XXXIV. Three New Alkaloids, Thalmirabine, Thalistine, and O-Methylthalibrine, and Others From Roots of Thalictrum minus Race B” (1980)
